Columns and labels:
[1] = system: LU99; experiment: Cell viability assay for additional cell lines: LU99; assay type: cell-based; details: for GI50: Homo sapiens, Lu-99, 216 h, 9-day treatment, average of n=2, read-out: MTAP-Deleted GI50
Description: (§1) Some Compounds of the Disclosure were tested in Calu-6 (Vendor: ATCC; Cat #HTB-56; Description: lung, adenocarcinoma), LU99 (Vendor: JCRB; Cat #JCRB0080; Description: non-small cell lung cancer), SW780 (Vendor: ATCC; Cat #CRL-2169; Description: bladder urothelial carcinoma), BxPC-3 (Vendor: ATCC; Cat #CRL-1687; Description: pancreatic adenocarcinoma), Panc-1 (Vendor: ATCC; Cat #CRL-1469 Description: pancreatic adenocarcinoma), AsPC-1 (Vendor: ATCC; Cat #CRL-1682; Description: pancreatic adenocarcinoma), Calu-6 (Vendor: ATCC; Cat #HTB-56; Description: non-small cell lung cancer), and U-2 OS (Vendor: ATCC; Cat #HTB-96; Description: osteosarcoma), cellular viability assays according to the general protocol. Seeded cells into 96-well plate and incubated overnight. Seeded an additional 10 wells per cell line in an additional 96-well plate for assessing Time Zero luminescence and incubated overnight. To treatment plates, added compounds into each well using Tecan D300e dispenser (nine three-fold dilutions starting at 10 μM) and incubated for 9 days. Time Zero (no compound treatment, luminescence assessed on day 1) and 9-day treatment (luminescence assessed on day 10) plates were assessed using the same CellTiter-Glo® substrate protocol. Thawed CellTiter-Glo® Buffer and lyophilized CellTiter-Glo® substrate and equilibrated to room temperature prior to use. The DMSO concentration was normalized to 0.137%. Transferred 100 ml CellTiter-Glo® Buffer into amber bottle containing CellTiter-Glo® substrate to reconstitute the lyophilized enzyme/substrate mixture. For Time Zero and 9-day treatment plates, removed all plating media. Added 100 μl fresh media/well. Added 100 μl CellTiter-Glo® Reagent per well. Mixed contents for 10 min on an orbital shaker to lyse cells. Recorded luminescence with Perkin Elmer Envision 2105 machine. Analyzed the data with GraphPad software. Potency fold difference is defined as GI50 (AMG193)/GI50 (Ca-47) for the MTAP^del cell line of interest. The structure of AMG193 is as follows.

[2] = system: U-2 OS; experiment: Cell viability assay for additional cell lines: U-2 OS; assay type: cell-based; details: Homo sapiens, U2OS, 216 h, 9-day treatment, average of n=2, read-out: MTAP-WT GI50
Description: as §1, with “Thawed CellTiter-Glo® Buffer and lyophilized CellTiter-Glo® substrate and equilibrated to room temperature prior to use. The DMSO concentration was normalized to 0.137%. Transferred 100 ml CellTiter-Glo® Buffer into amber bottle containing CellTiter-Glo® substrate to reconstitute the lyophilized enzyme/substrate mixture. For Time Zero and 9-day treatment plates, removed all plating media. Added 100 μl fresh media/well. Added 100 μl CellTiter-Glo® Reagent per well. Mixed contents for 10 min on an orbital shaker to lyse cells.” left out, “Potency fold difference is defined as GI50 (AMG193)/GI50 (Ca-47) for the MTAP^del cell line of interest. The structure of AMG193 is as follows.” left out

[3] = Sprague-Dawley Rat PK; assay type: in vivo; details: for BPR: Blood plasma ratio; for clearance / half-life / Vd: IV 0.33 mg/Kg; for clearance: plasma clearance, read-out: Observed CLp (converted); for Fold IVIVc: [Observed CLp/[BPR]/[Predicted Hepatocyte CL]; for half-life / Vd: plasma; for Vd: read-out: Vss
From the text: The following abbreviations are defined as follows for table 5. BPR: Blood plasma ratio, CLp: plasma clearance.
Cell viability assay data for LU99, SW780, BxPC-3, Panc-1, AsPC-1, Calu-6 and U-2 OS for AMG-193 and example Ca-47 are provided in Table 4. The following abbreviations are defined as follows for table 5. BPR: Blood plasma ratio, CLp: plasma clearance. Fold IVIVc=[Observed CLp/[BPR]/[Predicted Hepatocyte CL]

[4] = system: BxPC-3; experiment: Cell viability assay for additional cell lines: BxPC-3; assay type: cell-based; details: for GI50: Homo sapiens, 216 h, 9-day treatment, average of n=2, read-out: MTAP-Deleted GI50
Description: as §1

[5] = system: Panc-1; experiment: Cell viability assay for additional cell lines: Panc-1; assay type: cell-based; details: for GI50: Homo sapiens, 216 h, 9-day treatment, average of n=2, read-out: MTAP-Deleted GI50
Description: as §1

[6] = system: AsPC-1; experiment: Cell viability assay for additional cell lines: AsPC-1; assay type: cell-based; details: Homo sapiens, ASPC1, 216 h, 9-day treatment, average of n=2, read-out: MTAP-WT GI50
Description: as §1, with “Thawed CellTiter-Glo® Buffer and lyophilized CellTiter-Glo® substrate and equilibrated to room temperature prior to use. The DMSO concentration was normalized to 0.137%. Transferred 100 ml CellTiter-Glo® Buffer into amber bottle containing CellTiter-Glo® substrate to reconstitute the lyophilized enzyme/substrate mixture. For Time Zero and 9-day treatment plates, removed all plating media. Added 100 μl fresh media/well. Added 100 μl CellTiter-Glo® Reagent per well. Mixed contents for 10 min on an orbital shaker to lyse cells.” left out, “Potency fold difference is defined as GI50 (AMG193)/GI50 (Ca-47) for the MTAP^del cell line of interest. The structure of AMG193 is as follows.” left out

[7] = system: Calu-6; experiment: Cell viability assay for additional cell lines: Calu-6; assay type: cell-based; details: Homo sapiens, 216 h, 9-day treatment, average of n=2, read-out: MTAP-WT GI50
Description: as §1, with “Thawed CellTiter-Glo® Buffer and lyophilized CellTiter-Glo® substrate and equilibrated to room temperature prior to use. The DMSO concentration was normalized to 0.137%. Transferred 100 ml CellTiter-Glo® Buffer into amber bottle containing CellTiter-Glo® substrate to reconstitute the lyophilized enzyme/substrate mixture. For Time Zero and 9-day treatment plates, removed all plating media. Added 100 μl fresh media/well. Added 100 μl CellTiter-Glo® Reagent per well. Mixed contents for 10 min on an orbital shaker to lyse cells.” left out, “Potency fold difference is defined as GI50 (AMG193)/GI50 (Ca-47) for the MTAP^del cell line of interest. The structure of AMG193 is as follows.” left out

[8] = system: SW780; experiment: Cell viability assay for additional cell lines: SW780; assay type: cell-based; details: for GI50: Homo sapiens, 216 h, 9-day treatment, average of n=2, read-out: MTAP-Deleted GI50
Description: as §1

| BPR [3] | clearance [3] [mL/min/kg] | Fold IVIVc [3] [x] | half-life [3] [h] | Vd [3] [L/kg] | GI50 [4] [nM] | GI50 [5] [nM] | GI50 [6] [nM] | GI50 [7] [nM] | GI50 [8] [nM] | Compound | GI50 [1] [nM] | GI50 [2] [nM] | Potency fold difference ([1]; GI50 (AMG193)/GI50 (Ca-47)) | Potency fold difference ([4]; GI50 (AMG193)/GI50 (Ca-47)) | Potency fold difference ([5]; GI50 (AMG193)/GI50 (Ca-47)) | Potency fold difference ([8]; GI50 (AMG193)/GI50 (Ca-47)) |
| --- | --- | --- | --- | --- | --- | --- | --- | --- | --- | --- | --- | --- | --- | --- | --- | --- |
| 0.95 | 37.7 | 1 | 1.1 | 1.82 | 68 | 517 | > 10000 | 7000 | 96 | Nc1nc2cnc(C(=O)N3CCOC[C@@H]3c3ccc(C(F)(F)F)cc3)cc2c2c1COC2 [AMG193, reference compound] | 45 | 9360 | – | – | – | – |
| 0.89 | 14.2 | 0.37 | 2.5 | 2.08 | 16 | 87 | 2800 | 1600 | 17 | Nc1nc2cnc(C(=O)N3CCC[C@@H]4Oc5cc(C(F)(F)F)cc(F)c5[C@@H]43)cc2c2c1COC2 [Example Ca-47, (4-amino-1,3-dihydrofuro[3,4-c][1,7]naphthyridin-8-yl)((4aS,9bS)-9-fluoro-7-(trifluoromethyl)-3,4,4a,9b-tetrahydrobenzofuro[3,2-b]pyridin-1(2H)-yl)methanone] | 9 | 2300 | 5 | 4.3 | 5.9 | 5.6 |

— patent US20250154172A1, “PRMT5 INHIBITORS AND USES THEREOF” (Gilead Sciences, Inc., priority 2023, published 2025)
